Results published in patent publication US12264134B2 (Merck Sharp & Dohme LLC, priority 2018, dated 2025).
pIC50: −log10 of the molar value.

Target: IDO1 (Homo sapiens, UniProt P14902)
Assay: IDO1 Cellular Assay in HeLa Cells Stimulated with IFNγ
Type: cell-based
Settings: read-out: HeLa Cell Potency, IC50
Protocol: IDO1 Cellular Assay in HeLa Cells Stimulated with IFNγ
HeLa cells were cultured in complete HeLa culture medium (90% EMEM, 10% heat-inactivated fetal bovine serum) and expanded to about 1×10^9 cells. The cells were then collected and frozen down at 1×10^7 cells/vial in 1 mL frozen medium (90% complete HeLa culture medium, 10% DMSO).
Compounds to be tested were serially diluted in ten 3-fold steps in DMSO starting from 10 mM DMSO stocks in Echo low volume plate(s). Compound dilutions or DMSO alone were then dispensed from the dilution plate(s) into Greiner black 384-well assay plate(s) (catalog #781086, 50 nL/well) using an Echo 550 acoustic liquid handler (Labcyte).
Frozen HeLa cells were thawed and transferred into HeLa assay medium (99% complete HeLa culture medium, 1% Pen/Strep) with 20 mL medium/vial of cells. The cells were spun down at 250 g in a table top centrifuge for 5 min and suspended in same volume of HeLa assay medium. The cells were then counted and adjusted to a density of 2×10^5 cells/mL in HeLa assay medium. Sterile L-tryptophan were added to the cells with final concentration of 300 uM L-tryptophan. A small aliquot (2 mL/plate) of HeLa cells were set aside and were not treated with IFNγ, to serve as the Max-E control.
HeLa cells with and without IFNγ were dispensed to the respective wells of 384-well assay plates containing the compounds. The plates were incubated for about 48 hours at a 37° C., 5% CO2 incubator. Afterwards, 12 μL of 0.5 M methyl isonipecotate in dimethyl sulfoxide were added into each well and the plates were sealed and incubated at 37° C. without CO2 overnight. The plates were centrifuged for 1 min at 200×g. The resulting fluorescence was measured in a Spectramax plate reader (Molecular Devices) with a 400 nm excitation filter and a 510 nm emission filter.
The fluorescence intensity of each well was corrected for the background observed in wells with non-IFNγ-treated cells and was expressed as a fraction of the intensity observed in wells of IFNγ-treated cells and DMSO only. Potencies were calculated by linear least squares fit to the four parameter logistic IC50 equation.

IDO1, sequence (P14902 whole entry): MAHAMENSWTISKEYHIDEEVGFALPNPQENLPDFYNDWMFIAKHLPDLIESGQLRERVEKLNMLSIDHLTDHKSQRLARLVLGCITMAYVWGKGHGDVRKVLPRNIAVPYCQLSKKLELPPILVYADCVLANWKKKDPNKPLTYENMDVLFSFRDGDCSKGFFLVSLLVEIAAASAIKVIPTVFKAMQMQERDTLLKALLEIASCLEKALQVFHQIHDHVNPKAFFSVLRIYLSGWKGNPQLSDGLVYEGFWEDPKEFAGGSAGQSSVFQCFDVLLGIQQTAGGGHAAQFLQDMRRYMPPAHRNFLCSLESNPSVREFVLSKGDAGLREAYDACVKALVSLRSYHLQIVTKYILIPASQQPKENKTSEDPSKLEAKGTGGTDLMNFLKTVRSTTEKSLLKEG

Compound | pIC50
Cc1cc(C#N)ccc1N1CCN(C(=O)Cn2nc(C(=O)N3C[C@@H](C)O[C@@H](C)C3)c3c2CCC3)CC1 [Example 26, 4-[4-[2-[3-[(2S,6R)-2,6-dimethylmorpholine-4-carbonyl]-5,6-dihydro-4H-cyclopenta[c]pyrazol-1-yl]acetyl]piperazin-1-ium-1-yl]-3-methyl-benzonitrile,2,2,2-trifluoroacetate] | 6.32
Cc1cccc(N2CCN(C(=O)Cn3nc(C(=O)N4CCC(O)(CO)CC4)c4c3CCCC4)CC2)c1C [Example 455, 1-(4-(2,3-dimethylphenyl)piperazin-1-yl)-2-(3-(4-hydroxy-4-(hydroxymethyl)piperidine-1-carbonyl)-4,5,6,7-tetrahydro-1H-indazol-1-yl)ethanone] | 8.48
Cc1cccc(N2CCN(C(=O)Cn3nc(C(=O)N4CC[C@@H]5[C@H](CCC(=O)N5C)C4)c4c3C[C@H]3C[C@@H]43)CC2)c1C [Example 218, (4aR,8aR)-6-((3bR,4aR)-1-(2-(4-(2,3-dimethylphenyl)piperazin-1-yl)-2-oxoethyl)-3b,4,4a,5-tetrahydro-1H-cyclopropa[3,4]cyclopenta[1,2-c]pyrazole-3-carbonyl)-1-methyloctahydro-1,6-naphthyridin-2(1H)-one] | 9.19
Cc1cccc(N2CCN(C(=O)Cn3nc(C(=O)N4CCCC5(CCNC5=O)C4)c4c3CCC4)CC2)c1C (centres unmarked) [Example 193, 7-(1-{2-[4-(2,3-dimethylphenyl)piperazin-1-yl]-2-oxoethyl}-1,4,5,6-tetrahydrocyclopenta[c]pyrazole-3-carbonyl)-2,7-diazaspiro[4.5]decan-1-one] | 7.12
CC(=O)N(C)C1CCN(C(=O)c2nn(CC(=O)N3CCN(c4cccc(C)c4C)CC3)c3c2[C@@H]2C[C@@H]2C3)CC1 [Example 256, N-{1-[(3bR,4aR)-1-{2-[4-(2,3-dimethylphenyl)piperazin-1-yl]-2-oxoethyl}-3b,4,4a,5-tetrahydro-1H-cyclopropa[3,4]cyclopenta[1,2-c]pyrazole-3-carbonyl]piperidin-4-yl}-N-methylacetamide] | 9.08
Cc1cccc(N2CCN(C(=O)Cn3nc(C(=O)N4CCOCC4CO)c4c3C[C@H]3C[C@@H]43)CC2)c1C (stereo partly drawn) [Example 274, 1-[4-(2,3-dimethylphenyl)piperazin-1-yl]-2-{(3bR,4aR)-3-[3-(hydroxymethyl)morpholine-4-carbonyl]-3b,4,4a,5-tetrahydro-1H-cyclopropa[3,4]cyclopenta[1,2-c]pyrazol-1-yl}ethan-1-one] | 8.20
Cc1cccc(N2CCN(C(=O)Cn3nc(C(=O)N4CC[C@H](O)[C@H](F)C4)c4c3C(O)CCC4)CC2)c1C (single isomer, unassigned) [Example 25] | 6.30
Cc1cccc(N2CCN(C(=O)Cn3nc(C(=O)N4CCCC(N5CCNC5=O)C4)c4c3C[C@H]3C[C@@H]43)CC2)c1C (stereo partly drawn) [Example 226, 1-{1-[(3bR,4aR)-1-{2-[4-(2,3-dimethylphenyl)piperazin-1-yl]-2-oxoethyl}-3b,4,4a,5-tetrahydro-1H-cyclopropa[3,4]cyclopenta[1,2-c]pyrazole-3-carbonyl]piperidin-3-yl}imidazolidin-2-one] | 8.20
Cc1cccc(N2CCN(C(=O)Cn3nc(C(=O)N4CCN(C(=O)[C@H](C)O)CC4)c4c3CCC4)CC2)c1C [Example 397, (S)-1-(4-(1-(2-(4-(2,3-dimethylphenyl)piperazin-1-yl)-2-oxoethyl)-1,4,5,6-tetrahydrocyclopenta[c]pyrazole-3-carbonyl)piperazin-1-yl)-2-hydroxypropan-1-one] | 7.65
Cc1cccc(N2CCN(C(=O)Cn3nc(C(=O)N4CCC(=O)N(C)CC4)c4c3CCC4)CC2)c1C [Example 84, 1-(1-{2-[4-(2,3-dimethylphenyl)piperazin-1-yl]-2-oxoethyl}-1,4,5,6-tetrahydrocyclopenta[c]pyrazole-3-carbonyl)-4-methyl-1,4-diazepan-5-one] | 7.81
Cc1cccc(N2CCN(C(=O)Cn3nc(C(=O)N4CCOC(CO)C4)c4c3CCC4)CC2)c1C (centres unmarked) [Example 155, 1-[4-(2,3-dimethylphenyl)piperazin-1-yl]-2-{3-[2-(hydroxymethyl)morpholine-4-carbonyl]-5,6-dihydrocyclopenta[c]pyrazol-1(4H)-yl}ethan-1-one] | 7.54
Cc1cccc(N2CCN(C(=O)Cn3nc(C(=O)N4CCC(O)(CF)CC4)c4c3CCC4)CC2)c1C [Example 481, 1-(4-(2,3-dimethylphenyl)piperazin-1-yl)-2-(3-(4-(fluoromethyl)-4-hydroxypiperidine-1-carbonyl)-5,6-dihydrocyclopenta[c]pyrazol-1(4H)-yl) ethanone] | 7.98
Cc1cccc(N2CCN(C(=O)Cn3nc(C(=O)N4C[C@@H](C)O[C@@H](C)C4)c4c3CC3CC43)CC2)c1C (stereo partly drawn) [Example 310, 2-{3-[(2R,6S)-2,6-dimethylmorpholine-4-carbonyl]-3b-4,4a,5-tetrahydro-1H-cyclopropa[3,4]cyclopenta[1,2-c]pyrazol-1-yl}-1-[4-(2,3-dimethylphenyl)piperazin-1-yl]ethan-1-one] | 8.73
Cc1cccc(N2CCN(C(=O)Cn3nc(C(=O)N4CCC5(CCNC5)CC4)c4c3CCC4)CC2)c1C [Example 175, 2-[3-(2,8-diazaspiro[4.5]decane-8-carbonyl)-5,6-dihydrocyclopenta[c]pyrazol-1(4H)-yl]-1-[4-(2,3-dimethylphenyl)piperazin-1-yl]ethan-1-one] | 6.30
C[C@@H]1CN(C(=O)c2nn(CC(=O)N3CCN(c4ccc(F)c(F)c4)CC3)c3c2CCC3)C[C@H](C)O1 [Example 45, 1-[4-(3,4-difluorophenyl)piperazin-1-yl]-2-{3-[(2R,6S)-2,6-dimethylmorpholine-4-carbonyl]-5,6-dihydrocyclopenta[c]pryazol-1(4H)-yl}ethan-1-one] | 6.63
O=C(Cn1nc(C(=O)N2CC[C@H](O)[C@@H](F)C2)c2c1CCC2)N1CCN(C2CCCc3ccccc32)CC1 (stereo partly drawn) [Example 434, 2-(3-((3S,4S)-3-fluoro-4-hydroxypiperidine-1-carbonyl)-5,6-dihydrocyclopenta[c]pyrazol-1(4H)-yl)-1-(4-(1,2,3,4-tetrahydronaphalen-1-yl)piperazin-1-yl)ethanone] | 5.09
Cc1cccc(N2CCN(C(=O)Cn3nc(C(=O)N4CCC(O)C(F)(F)C4)c4c3CCC4)CC2)c1C (centres unmarked) [Example 149, 2-[3-(3,3-difluoro-4-hydroxypiperidine-1-carbonyl)-5,6-dihydrocyclopenta[c]pyrazol-1(4H)-yl]-1-[4-(2,3-dimethylphenyl)piperazin-1-yl]ethan-1-one] | 8.40
Cc1c(Cl)cccc1N1CCN(C(=O)Cn2nc(C(=O)N3CCN(C(=O)CO)CC3)c3c2CCC(F)C3)CC1 (centres unmarked) [Example 371, 1-(4-(3-chloro-2-methylphenyl)piperazin-1-yl)-2-(5-fluoro-3-(4-(2-hydroxyacetyl)piperazine-1-carbonyl)-4,5,6,7-tetrahydro-1H-indazol-1-yl)ethan-1-one] | 7.80
Cc1cccc(N2CCN(C(=O)Cn3nc(C(=O)N4CC[C@H](O)[C@@H](F)C4)c4c3CC(O)C4)CC2)c1C (single isomer, unassigned) [Example 416] | 7.12
Cc1cccc(N2CCN(C(=O)Cn3nc(C(=O)N4CC5(CO)CC4C5)c4c3CCC4)CC2)c1C [Example 301, 1-[4-(2,3-dimethylphenyl)piperazin-1-yl]-2-{3-[4-(hydroxymethyl)-2-azabicyclo[2.1.1]hexane-2-carbonyl]-5,6-dihydrocyclopenta[c]pyrazol-1(4H)-yl}ethan-1-one] | 7.77
C[C@@H]1CN(C(=O)c2nn(CC(=O)N3CCN(c4ccc(C(F)(F)F)cc4)CC3)c3c2CCC3)C[C@H](C)O1 [Example 51, 2-{3-[(2R,6S)-2,6-dimethylmorpholine-4-carbonyl]-5,6-dihydrocyclopenta[c]pyrazol-1(4H)-yl}-1-{4-[4-(trifluoromethyl)phenyl]piperazin-1-yl}ethan-1-one] | 6.76
Cc1c(F)cccc1N1CCN(C(=O)Cn2nc(C(=O)N3CC[C@H](O)[C@H](F)C3)c3c2CCC3)CC1 [Example 486, 1-(4-(3-fluoro-2-methylphenyl)piperazin-1-yl)-2-(3-((3R,4S)-3-fluoro-4-hydroxypiperidine-1-carbonyl)-5,6-dihydro-cyclopenta[c]pyrazol-1(4H)-yl)ethanone] | 6.89
Cc1c(N2CCN(C(=O)Cn3nc(C(=O)N4CCC(OCCO)CC4)c4c3C[C@H]3C[C@@H]43)CC2)cccc1C(F)(F)F [Example 341, 2-((3bR,4aR)-3-(4-(2-hydroxyethoxy)piperidine-1-carbonyl)-3b,4,4a,5-tetrahydro-1H-cyclopropa[3,4]cyclopenta[1,2-c]pyrazol-1-yl)-1-(4-(2-methyl-3-(trifluoromethyl)phenyl)piperazin-1-yl)ethanone] | 8.79
